PubChem BioAssay AID1259411 (Chemical Carcinogenesis Research Information System (CCRIS), 2018)
Active and inactive are the calls of the source. The rule behind the calls is not given here.

System: rodent carcinogenicity bioassays, tumor incidence
Test: CCRIS carcinogenicity studies
Text: The CCRIS database contains chemical records with carcinogenicity, mutagenicity, tumor promotion, and tumor inhibition test results. It was developed by the National Cancer Institute (NCI). Data are derived from studies cited in primary journals, current awareness tools, NCI reports, and other sources. Test results have been reviewed by experts in carcinogenesis and mutagenesis.
CCRIS provides historical information from the years 1985 - 2011. It is no longer updated.
This is an archive assay for CCRIS carcinogenicity studies.

Q: What does the source list for `C=C(C)CN(CC)c1c([N+](=O)[O-])cc(C(F)(F)F)cc1[N+](=O)[O-]`?
A: carcinogen call (Species: Mouse, Strain/Sex: B6C3F1/Female (40/Experimental group; 60/Control group), Route: Oral, Dose: 0, 100, 400, 1500 ppm of 94.5% ethalfluralin in diet for 2 yr, study duration 2 yr (2 replicate studies)., Dose: 0, 100, 400, 1500 ppm of 94.5% ethalfluralin in diet for 2 yr, study duration 2 yr (2 replicate studies).): inactive; negative; carcinogen call (Species: Mouse, Strain/Sex: B6C3F1/Male (40/Experimental group; 60/Control group), Route: Oral, Dose: 0, 100, 400, 1500 ppm of 94.5% ethalfluralin in diet for 2 yr, study duration 2 yr (2 replicate studies)., Dose: 0, 100, 400, 1500 ppm of 94.5% ethalfluralin in diet for 2 yr, study duration 2 yr (2 replicate studies).): inactive; negative; carcinogen call (Species: Rat, Strain/Sex: Fischer 344/Female (30/Group; replicate studies using 94.5% ethalfluralin), Route: Oral, Dose: 0, 0.01, 0.025, 0.075% (0; 4.2; 10.7; 32.3 mg/kg/d) in diet for 2 yr, study duration 2 yr, Dose: 0, 0.01, 0.025, 0.075% (0; 4.2; 10.7; 32.3 mg/kg/d) in diet for 2 yr, study duration 2 yr, Tumor Site: Type of Lesion: Mammary gland: Benign fibroadenomas): active; positive; carcinogen call (Species: Rat, Strain/Sex: Fischer 344/Male (30/Group; replicate studies using 94.5% ethalfluralin), Route: Oral, Dose: 0, 0.01, 0.025, 0.075% (0; 4.2; 10.7; 32.3 mg/kg/d) in diet for 2 yr, study duration 2 yr, Dose: 0, 0.01, 0.025, 0.075% (0; 4.2; 10.7; 32.3 mg/kg/d) in diet for 2 yr, study duration 2 yr): inactive; negative

Q: Which results are given for `C1=Cc2cc3ccccc3c3cccc1c23`?
A: carcinogen call (Species: MOUSE, Strain/Sex: BLU:HA/FEMALE, Route: INTRAPERITONEAL, Dose: 0, 175, 437.5 UG/KG/D ON DAYS 1 (1/7 TOTAL DOSE), 8 (2/7 TOTAL DOSE), AND 15 (4/7 TOTAL DOSE) AFTER BIRTH (STUDY DURATIO, Dose: 0, 175, 437.5 UG/KG/D ON DAYS 1 (1/7 TOTAL DOSE), 8 (2/7 TOTAL DOSE), AND 15 (4/7 TOTAL DOSE) AFTER BIRTH (STUDY DURATIO): inactive; negative; carcinogen call (Species: MOUSE, Strain/Sex: BLU:HA/MALE, Route: INTRAPERITONEAL, Dose: 0, 175, 437.5 UG/KG/D ON DAYS 1 (1/7 TOTAL DOSE), 8 (2/7 TOTAL DOSE), AND 15 (4/7 TOTAL DOSE) AFTER BIRTH (STUDY DURATIO, Dose: 0, 175, 437.5 UG/KG/D ON DAYS 1 (1/7 TOTAL DOSE), 8 (2/7 TOTAL DOSE), AND 15 (4/7 TOTAL DOSE) AFTER BIRTH (STUDY DURATIO, Tumor Site: Type of Lesion: LUNG: ADENOMA): active; positive; carcinogen call (Species: MOUSE, Strain/Sex: CD-1/FEMALE, Route: INTRAPERITONEAL, Dose: 0, 175, 437.5, 875 UG/KG/D ON DAYS 1 (1/7 TOTAL DOSE), 8 (2/7 TOTAL DOSE), AND 15 (4/7 TOTAL DOSE) AFTER BIRTH (STUDY DU, Dose: 0, 175, 437.5, 875 UG/KG/D ON DAYS 1 (1/7 TOTAL DOSE), 8 (2/7 TOTAL DOSE), AND 15 (4/7 TOTAL DOSE) AFTER BIRTH (STUDY DU): inactive; negative; carcinogen call (Species: MOUSE, Strain/Sex: CD-1/MALE, Route: INTRAPERITONEAL, Dose: 0, 175, 437.5, 875 UG/KG/D ON DAYS 1 (1/7 TOTAL DOSE), 8 (2/7 TOTAL DOSE), AND 15 (4/7 TOTAL DOSE) AFTER BIRTH (STUDY DU, Dose: 0, 175, 437.5, 875 UG/KG/D ON DAYS 1 (1/7 TOTAL DOSE), 8 (2/7 TOTAL DOSE), AND 15 (4/7 TOTAL DOSE) AFTER BIRTH (STUDY DU, Tumor Site: Type of Lesion: LUNG: ADENOMA OR ADENOCARCINOMA, LIVER: TUMOR): active; positive

Q: With `N[C@@H](CCC(=O)NNc1ccc(CO)cc1)C(=O)O` as the molecule, how does the carcinogen call (Species: MOUSE, Strain/Sex: SWISS/FEMALE, Route: SUBCUTANEOUS, Dose: 0, 100 UG IN 0.01 ML PHYSIOLOGICAL SALINE 1/WK FOR 5 WK (STUDY DURATION: LIFETIME)) read?
A: inactive; negative

Q: What about the carcinogen call (Species: MOUSE, Strain/Sex: SWISS/FEMALE, Route: SUBCUTANEOUS, Dose: 0, 100 UG IN 0.01 ML PHYSIOLOGICAL SALINE ONCE (STUDY DURATION: LIFETIME)) of the same molecule?
A: inactive; negative

Q: What about the carcinogen call (Species: MOUSE, Strain/Sex: SWISS/MALE, Route: SUBCUTANEOUS, Dose: 0, 50 UG IN 0.01 ML PHYSIOLOGICAL SALINE ONCE (STUDY DURATION: LIFETIME)) of the same molecule?
A: inactive; negative

Q: And the carcinogen call (Species: MOUSE, Strain/Sex: SWISS/MALE, Route: SUBCUTANEOUS, Dose: 0, 100 UG IN 0.01 ML PHYSIOLOGICAL SALINE 1/WK FOR 5 WK (STUDY DURATION: LIFETIME))?
A: inactive; negative

Q: How did the carcinogen call (Species: MOUSE, Strain/Sex: B6C3F1/FEMALE, Route: ORAL, Dose: 0, 1000, 2000 PPM IN DIET FOR 105 WK (STUDY DURATION: 105 WK), Dose: 0, 1000, 2000 PPM IN DIET FOR 105 WK (STUDY DURATION: 105 WK)) turn out when `[Cl][Sn][Cl]` was run?
A: inactive; negative

Q: And the carcinogen call (Species: MOUSE, Strain/Sex: B6C3F1/MALE, Route: ORAL, Dose: 0, 1000, 2000 PPM IN DIET FOR 105 WK (STUDY DURATION: 105 WK), Dose: 0, 1000, 2000 PPM IN DIET FOR 105 WK (STUDY DURATION: 105 WK))?
A: inactive; negative

Q: What about the carcinogen call (Species: RAT, Strain/Sex: F344/FEMALE, Route: ORAL, Dose: 0, 1000, 2000 PPM IN DIET FOR 105 WK (STUDY DURATION: 105 WK), Dose: 0, 1000, 2000 PPM IN DIET FOR 105 WK (STUDY DURATION: 105 WK)) of the same molecule?
A: inactive; negative

Q: What about the carcinogen call (Species: RAT, Strain/Sex: F344/MALE, Route: ORAL, Dose: 0, 1000, 2000 PPM IN DIET FOR 105 WK (STUDY DURATION: 105 WK), Dose: 0, 1000, 2000 PPM IN DIET FOR 105 WK (STUDY DURATION: 105 WK), Tumor Site: Type of Lesion: THYROID GLAND: C-CELL ADENOMA, C-CELL ADENOMA OR CARCINOMA) of the same molecule?
A: equivocal

Q: How did the carcinogen call (Species: MOUSE, Route: INTRAPERITONEAL, Tumor Site: Type of Lesion: LUNG) turn out when `COCCOC1=C(N2CC2)C(=O)C(OCCOC)=C(N2CC2)C1=O` was run?
A: active; positive

Q: With `CC(=O)CNCC(O)C(O)N=O` (stereo not drawn) as the molecule, how does the carcinogen call (Species: RAT, Strain/Sex: F344/FEMALE, Route: ORAL, Dose: 0, 15, 60 MG/L DRINKING WATER 5 D/WK FOR 31, 24 WK (TOTAL DOSE 47; 144 MG) (STUDY DURATION: LIFESPAN), Dose: 0, 15, 60 MG/L DRINKING WATER 5 D/WK FOR 31, 24 WK (TOTAL DOSE 47; 144 MG) (STUDY DURATION: LIFESPAN), Tumor Site: Type of Lesion: ESOPHAGUS: CARCINOMA, PAPILLOMA, FORESTOMACH: CARCINOMA, PAPILLOMA, LUNG: TUMOR, TONGUE: CARCINOMA, PAPILLOMA, Tumor Site: Type of Lesion: ESOPHAGUS: CARCINOMA, PAPILLOMA, FORESTOMACH: CARCINOMA, PAPILLOMA, LUNG: TUMOR, TONGUE: CARCINOMA, PAPILLOMA) read?
A: active; positive

Q: How did the carcinogen call (Species: DOG, Strain/Sex: BEAGLE/FEMALE, Route: ORAL, Dose: 0, 30, 100, 400 MG/KG/D IN DIET FOR 52 WK (STUDY DURATION: 52 WK), Dose: 0, 30, 100, 400 MG/KG/D IN DIET FOR 52 WK (STUDY DURATION: 52 WK)) turn out when `CCN(CC)C(=O)c1cccc(C)c1` was run?
A: inactive; negative

Q: What about the carcinogen call (Species: DOG, Strain/Sex: BEAGLE/MALE, Route: ORAL, Dose: 0, 30, 100, 400 MG/KG/D IN DIET FOR 52 WK (STUDY DURATION: 52 WK), Dose: 0, 30, 100, 400 MG/KG/D IN DIET FOR 52 WK (STUDY DURATION: 52 WK)) of the same molecule?
A: inactive; negative

Q: What about the carcinogen call (Species: MOUSE, Strain/Sex: CD-1/MALE, Route: ORAL, Dose: 0, 250, 500, 1000 MG/KG/D IN DIET FOR 78 WK (STUDY DURATION: 78 WK), Dose: 0, 250, 500, 1000 MG/KG/D IN DIET FOR 78 WK (STUDY DURATION: 78 WK)) of the same molecule?
A: inactive; negative

Q: What about the carcinogen call (Species: Mouse, Strain/Sex: CD-1/Female (60/Group), Route: Oral, Dose: 0, 250, 500, 1000 mg/kg in diet for 78 wk, Dose: 0, 250, 500, 1000 mg/kg in diet for 78 wk) of the same molecule?
A: inactive; negative

Q: What about the carcinogen call (Species: Mouse, Strain/Sex: CD-1/Male (60/Group), Route: Oral, Dose: 0, 250, 500, 1000 mg/kg in diet for 78 wk, Dose: 0, 250, 500, 1000 mg/kg in diet for 78 wk) of the same molecule?
A: inactive; negative

Q: What about the carcinogen call (Species: RAT, Strain/Sex: CD-1/FEMALE, Route: ORAL, Dose: 0, 250, 500, 1000 MG/KG/D IN DIET FOR 78 WK (STUDY DURATION: 78 WK), Dose: 0, 250, 500, 1000 MG/KG/D IN DIET FOR 78 WK (STUDY DURATION: 78 WK)) of the same molecule?
A: inactive; negative

Q: What about the carcinogen call (Species: RAT, Strain/Sex: CD/FEMALE, Route: ORAL, Dose: 0, 30, 100, 400 MG/KG/D IN DIET FOR 104 WK (STUDY DURATION: 104 WK), Dose: 0, 30, 100, 400 MG/KG/D IN DIET FOR 104 WK (STUDY DURATION: 104 WK)) of the same molecule?
A: inactive; negative

Q: What about the carcinogen call (Species: RAT, Strain/Sex: CD/MALE, Route: ORAL, Dose: 0, 10, 30, 100 MG/KG/D IN DIET FOR 104 WK (STUDY DURATION: 104 WK), Dose: 0, 10, 30, 100 MG/KG/D IN DIET FOR 104 WK (STUDY DURATION: 104 WK)) of the same molecule?
A: inactive; negative

Q: What about the carcinogen call (Species: Rat, Strain/Sex: Charles River CD/Female (60/Group), Route: Oral, Dose: 0, 10, 30, 100 mg/kg in diet for 2 yr, Dose: 0, 10, 30, 100 mg/kg in diet for 2 yr) of the same molecule?
A: inactive; negative

Q: And the carcinogen call (Species: Rat, Strain/Sex: Charles River CD/Male (60/Group), Route: Oral, Dose: 0, 10, 30, 100 mg/kg in diet for 2 yr, Dose: 0, 10, 30, 100 mg/kg in diet for 2 yr)?
A: inactive; negative
